{
  "source": "paper PMC8185074",
  "about": "“Anchor extension: a structure-guided approach to design cyclic peptides targeting enzyme active sites” (Nature Communications, 2021)",
  "type_in_all_cases": "biochemical",
  "key": {"HDAC2 [1]": {"target": "T1, HDAC2 (Homo sapiens, UniProt Q92769)", "T1 construct": "purchased Reaction Biology Corporation (assay run by the CRO)", "T1 sequence (Q92769 whole entry)": "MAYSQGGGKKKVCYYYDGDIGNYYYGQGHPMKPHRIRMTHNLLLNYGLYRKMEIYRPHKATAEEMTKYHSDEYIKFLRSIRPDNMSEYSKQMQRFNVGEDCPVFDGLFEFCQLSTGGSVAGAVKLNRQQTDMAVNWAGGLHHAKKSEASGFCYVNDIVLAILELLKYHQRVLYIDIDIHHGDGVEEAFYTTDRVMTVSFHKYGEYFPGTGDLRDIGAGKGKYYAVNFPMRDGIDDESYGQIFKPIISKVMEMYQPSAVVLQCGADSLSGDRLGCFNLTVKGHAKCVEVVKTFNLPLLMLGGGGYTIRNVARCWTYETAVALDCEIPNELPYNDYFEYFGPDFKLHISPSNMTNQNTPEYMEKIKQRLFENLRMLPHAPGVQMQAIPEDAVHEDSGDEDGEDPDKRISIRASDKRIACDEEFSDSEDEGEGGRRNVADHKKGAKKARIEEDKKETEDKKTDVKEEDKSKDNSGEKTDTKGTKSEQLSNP", "assay": "HDAC2 inhibition, full IC50 measurement (Reaction Biology; fluorogenic p53 peptide RHKK(Ac)AMC)", "outline": "(§1)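 Reaction: enzyme plus acoustically dispensed peptide inhibitor, 50 μM RHKK(Ac)AMC substrate, pH 8.0 Tris buffer with BSA and 1% DMSO, 1 h, 30 °C. Duplicates averaged.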"}, "HDAC8": {"target": "T2, HDAC8 (Homo sapiens, UniProt Q9BY41)", "T2 construct": "purchased Reaction Biology Corporation (assay run by the CRO)", "T2 sequence (Q9BY41 1-377)": "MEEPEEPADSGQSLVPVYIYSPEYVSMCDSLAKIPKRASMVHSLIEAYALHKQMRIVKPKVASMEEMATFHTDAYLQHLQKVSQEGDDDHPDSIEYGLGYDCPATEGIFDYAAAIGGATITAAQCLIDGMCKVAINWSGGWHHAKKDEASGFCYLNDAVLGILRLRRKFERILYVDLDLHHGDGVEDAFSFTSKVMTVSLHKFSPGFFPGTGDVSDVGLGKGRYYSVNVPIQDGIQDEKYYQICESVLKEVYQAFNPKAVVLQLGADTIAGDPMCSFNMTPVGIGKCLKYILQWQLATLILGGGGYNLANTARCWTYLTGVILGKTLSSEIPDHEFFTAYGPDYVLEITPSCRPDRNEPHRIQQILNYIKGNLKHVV", "assay": "HDAC8 inhibition, full IC50 measurement (Reaction Biology; fluorogenic p53 peptide RHKK(Ac)AMC)", "outline": "as §1"}, "HDAC7": {"target": "T3, HDAC7 (Homo sapiens, UniProt Q8WUI4)", "T3 sequence (Q8WUI4 1-952)": "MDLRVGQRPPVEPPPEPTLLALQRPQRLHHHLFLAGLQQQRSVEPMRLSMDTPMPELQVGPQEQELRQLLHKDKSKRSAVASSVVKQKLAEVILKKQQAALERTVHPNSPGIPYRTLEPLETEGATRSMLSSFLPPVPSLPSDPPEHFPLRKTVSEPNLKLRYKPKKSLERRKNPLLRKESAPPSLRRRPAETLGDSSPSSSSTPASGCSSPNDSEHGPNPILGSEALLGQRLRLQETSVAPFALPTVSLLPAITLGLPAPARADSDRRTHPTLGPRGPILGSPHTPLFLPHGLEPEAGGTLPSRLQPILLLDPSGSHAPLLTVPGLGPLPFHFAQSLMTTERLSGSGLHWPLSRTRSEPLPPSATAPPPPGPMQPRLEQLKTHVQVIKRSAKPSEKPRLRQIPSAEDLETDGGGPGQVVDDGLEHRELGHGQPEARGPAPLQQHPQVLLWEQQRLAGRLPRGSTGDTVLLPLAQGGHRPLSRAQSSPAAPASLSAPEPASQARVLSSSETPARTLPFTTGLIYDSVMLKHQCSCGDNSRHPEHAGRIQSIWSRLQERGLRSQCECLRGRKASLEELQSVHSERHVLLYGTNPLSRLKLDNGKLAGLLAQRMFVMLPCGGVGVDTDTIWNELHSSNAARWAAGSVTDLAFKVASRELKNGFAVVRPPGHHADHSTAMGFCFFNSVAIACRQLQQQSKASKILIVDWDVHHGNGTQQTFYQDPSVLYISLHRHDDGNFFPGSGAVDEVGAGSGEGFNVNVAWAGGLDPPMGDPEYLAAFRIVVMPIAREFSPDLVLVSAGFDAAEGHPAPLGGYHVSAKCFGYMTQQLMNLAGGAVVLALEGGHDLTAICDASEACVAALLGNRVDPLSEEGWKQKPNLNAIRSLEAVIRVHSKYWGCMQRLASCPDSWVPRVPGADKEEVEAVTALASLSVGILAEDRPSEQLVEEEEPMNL", "assay": "HDAC7 profiling of SHA anchor and early peptides"}, "HDAC2 [2]": {"target": "T1, HDAC2", "assay": "Initial HDAC2 IC50 estimate (BPS Biosciences HDAC fluorogenic assay kit)", "details": "Supplementary Dataset 2; read-out: HDAC2 activity (initial activity)", "outline": "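Inhibition measured by kit-based fluorogenic HDAC activity assays, with each point in duplicate or triplicate. Values come from a full 1 µM–100 pM series (1:10 steps) or are range estimates from just 20 nM and 200 nM.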"}},
  "note": "Entries after “also recorded” stand apart in the source; their conditions may differ.",
  "data": [
    {"compound": "N[C@@H](CCCCCS)C(=O)O", "note": "[SHA, 2S-2-amino-7-sulfanylheptanoic acid]", "values": [
      {"measurement": "HDAC2 inhibition potency in words", "setting": "HDAC2 [1]", "result": "low micro-molar to high nano-molar affinities"},
      {"measurement": "HDAC2 raw activity signal", "setting": "HDAC2 [1]; Conc. 1.00E-05 M", "result": 210566},
      {"measurement": "HDAC2 raw activity signal", "setting": "HDAC2 [1]; Conc. 1.11E-06 M", "result": 643731},
      {"measurement": "HDAC2 raw activity signal", "setting": "HDAC2 [1]; Conc. 1.23E-07 M", "result": 728862},
      {"measurement": "HDAC2 raw activity signal", "setting": "HDAC2 [1]; Conc. 1.37E-08 M", "result": 787686},
      {"measurement": "HDAC2 raw activity signal", "setting": "HDAC2 [1]; Conc. 1.52E-09 M", "result": 708004},
      {"measurement": "HDAC2 raw activity signal", "setting": "HDAC2 [1]; Conc. 3.33E-06 M", "result": 523867},
      {"measurement": "HDAC2 raw activity signal", "setting": "HDAC2 [1]; Conc. 3.70E-07 M", "result": 682189},
      {"measurement": "HDAC2 raw activity signal", "setting": "HDAC2 [1]; Conc. 4.12E-08 M", "result": 772929},
      {"measurement": "HDAC2 raw activity signal", "setting": "HDAC2 [1]; Conc. 4.57E-09 M", "result": 735698},
      {"measurement": "HDAC2 raw activity signal", "setting": "HDAC2 [1]; Conc. 5.08E-10 M", "result": 743884},
      {"measurement": "IC50", "setting": "HDAC2 [1]; read-out: HDAC2 IC50", "result": 5.4, "unit": "µM"},
      {"measurement": "HDAC8 inhibition potency in words", "setting": "HDAC8", "result": "low micro-molar to high nano-molar affinities"},
      {"measurement": "HDAC8 raw activity signal", "setting": "HDAC8; Conc. 1.00E-05 M", "result": 485885},
      {"measurement": "HDAC8 raw activity signal", "setting": "HDAC8; Conc. 1.11E-06 M", "result": 715893},
      {"measurement": "HDAC8 raw activity signal", "setting": "HDAC8; Conc. 1.23E-07 M", "result": 664184},
      {"measurement": "HDAC8 raw activity signal", "setting": "HDAC8; Conc. 1.37E-08 M", "result": 813063},
      {"measurement": "HDAC8 raw activity signal", "setting": "HDAC8; Conc. 1.52E-09 M", "result": 850527},
      {"measurement": "HDAC8 raw activity signal", "setting": "HDAC8; Conc. 3.33E-06 M", "result": 572309},
      {"measurement": "HDAC8 raw activity signal", "setting": "HDAC8; Conc. 3.70E-07 M", "result": 755715},
      {"measurement": "HDAC8 raw activity signal", "setting": "HDAC8; Conc. 4.12E-08 M", "result": 855669},
      {"measurement": "HDAC8 raw activity signal", "setting": "HDAC8; Conc. 4.57E-09 M", "result": 817878},
      {"measurement": "HDAC8 raw activity signal", "setting": "HDAC8; Conc. 5.08E-10 M", "result": 743919},
      {"measurement": "binding to HDAC7", "setting": "HDAC7", "result": "not detected binding; also recorded: no binding"},
      {"measurement": "HDAC7 raw activity signal", "setting": "HDAC7; Conc. 1.00E-05 M", "result": 490633},
      {"measurement": "HDAC7 raw activity signal", "setting": "HDAC7; Conc. 1.11E-06 M", "result": 609377},
      {"measurement": "HDAC7 raw activity signal", "setting": "HDAC7; Conc. 1.23E-07 M", "result": 577915},
      {"measurement": "HDAC7 raw activity signal", "setting": "HDAC7; Conc. 1.37E-08 M", "result": 439997},
      {"measurement": "HDAC7 raw activity signal", "setting": "HDAC7; Conc. 1.52E-09 M", "result": 431089},
      {"measurement": "HDAC7 raw activity signal", "setting": "HDAC7; Conc. 3.33E-06 M", "result": 551905},
      {"measurement": "HDAC7 raw activity signal", "setting": "HDAC7; Conc. 3.70E-07 M", "result": 580293},
      {"measurement": "HDAC7 raw activity signal", "setting": "HDAC7; Conc. 4.12E-08 M", "result": 536345},
      {"measurement": "HDAC7 raw activity signal", "setting": "HDAC7; Conc. 4.57E-09 M", "result": 413084},
      {"measurement": "HDAC7 raw activity signal", "setting": "HDAC7; Conc. 5.08E-10 M", "result": 366480},
      {"measurement": "IC50", "setting": "HDAC2 [2]", "result": 5, "unit": "µM"}
    ]}
  ]
}
